# Measured values from patent US12440493B2, “Combination therapy for treating cancer comprising substituted piperazines” (Eli Lilly and Company, priority 2020, dated 2025).
# “And” between values parts separate entries of the source, which are not always exact repeats. Equal entries are not always repeated.
# Legend:
# [1] = test system: IDH1(R132H) primary human AML cells; assay: AML clearance in peripheral blood (flow cytometry, % hCD33+hCD45+ of total white cells), human AML PDx models in NSG mice; type: in vivo; details: for AML clearance (% hCD33 + hCD45+ (of total white cells)): 1 mg/kg Azacitidine, (QDx5, rest2)X2, 14 days off, each value one animal, 1 mg/kg
# Protocol: (§1) Compounds and Formulation. For in vivo studies, each test article is prepared at an appropriate concentration with vehicle. […] Compound A is prepared fresh at the appropriate concentrations with vehicle every 7 days and stored at 4° C. between doses. […] Cytarabine is prepared fresh weekly by dilution with sterile saline from stock solution of Cytarabine (injection 20 mg/mL, (Pfizer injectables')). Azacitidine (Sigma, Lot #MKBR7212) is formulated in sterile water and is prepared fresh daily immediately before dosing. In vivo human AML PDx models. […] Two models are used in the studies: […] As needed, splenocytes from tumor-bearing mice are used to propagate and expand the models, as described. Each test article is prepared as described above at an appropriate concentration with vehicle to give animals the doses tested in this study at a dosing volume of 10 μL/gram body weight. Mice receiving Compound A (PO, QD) are treated at the indicated doses for the duration of the study. The combination agents are dosed as follows: […] Treated mice are assessed in comparison to vehicle treated and naïve (non-tumor bearing) control mice. Body weight is recorded twice per week. […] AML PDx model propagation. […] Spleens are processed and splenocytes isolated as described below. Two hundred μL per subject of the splenocyte prep is injected IV (intravenous, tail vein) into recipient NSG mice. […] Once engraftment is confirmed, the mice are monitored biweekly until ready to be put on study. […] Submandibular blood is collected. Spleen/Splenocyte Processing and Prep. After excision, a spleen is weighed, and […] is placed in a standard sterile 15 mL polypropylene conical tube containing PBS, and placed on ice. […] The spleen is placed in ice cold sterile PBS in a 15 mL collection tube. The spleen is removed from the collection tube and placed in a 100 micron 50 mL conical tube cell strainer (BD Falcon #352360). The spleen is processed by gentle rubbing of the spleen tissue against the surface of the cell strainer with the end of a 5 mL syringe plunger in a circular motion. The surface of the strainer is rinsed with 10 mL room temperature sterile DPBS (HyClone SH30028) 3 times during the process. […] The cell pellet is collected by centrifugation (300×g) and washed three times with 30 mL sterile DPBS. The cells are counted and resuspended in DPBS at the desired implant concentration. Bone Marrow Collection. […] Flow cytometry analysis of human white cells. Submandibular blood samples from in vivo studies are collected. Fluor-conjugated antibody stains are added according to the manufacturer's instructions (anti-human CD33-PE (clone WM53, BD Cat #555450), anti-human CD14-APC (clone MφpP9, BD Cat #340436), anti-human CD15-V450 (clone HI98, BD Cat #561584), anti-human CD117-BV421 (clone YB5.B8, BD Cat #562434), anti-human […]7 (clone ICRF44, BD Cat #557754), anti-human […]7 (clone HI30, BD Cat #557748), and anti-human CD3-FITC (clone SK7, BD Cat #340542)). The samples are incubated for 30 minutes at room temperature, protected from light. After the incubation, 1.5 mL 1×BD Lyse/Fix (37° C., (BD #558049)) is added to each sample and incubated for 12 minutes at room temperature. The tubes are centrifuged at 300×g for 7 minutes. BD Lyse/Fix solution is aspirated and the cell pellet washed with stain/wash buffer 3 times (1 wash step consisted of: pellet resuspended in 3 mL stain/wash buffer, centrifuged at 300×g, aspirated wash). Fixed cells are then resuspended in 300 to 400 μL stain/wash buffer. Samples are analyzed on a Becton Dickinson FACSVerse Flow cytometer (Cat #651155 Serial #Z6511550447) using standard flow cytometry principles and techniques. Samples are analyzed on the same day as they are stained and fixed. Population gating and data analysis of percent population are performed in the FACSuite software on the FACSVerse cytometer. Percent population values from the data analysis are plotted in Graphpad Prism or in JMP13. […]
# [2] = test system: IDH1(R132H) primary human AML cells; assay: AML cell differentiation in blood (flow cytometry, % hCD33+hCD11b+ of hCD45+ cells), human AML PDx models in NSG mice; type: in vivo; details: for AML cell differentiation (% hCD33 + hCD11b+ (of hCD45+ cells)): 1 mg/kg Azacitidine, (QDx5, rest2)X2, 14 days off, each value one animal, 1 mg/kg
# Protocol: as §1
# [3] = test system: IDH1(R132H) primary human AML cells; assay: Bone marrow AML clearance (flow cytometry), human AML PDx models in NSG mice; type: in vivo
# Protocol: as §1
# 2-HG production = assay: Plasma 2-HG inhibition (LC-MS metabolite analysis in plasma of AML PDx model); type: in vivo, human
# [4] = 1 mg/kg Azacitidine, (QD × 5, rest 2)x2, 14 days off, each line one animal
# [5] = 1 mg/kg Azacitidine, IP, (QDx5, rest 2)x2 14 days off, each line one animal
smiles,measurement,setting,value
"Nc1ncn([C@@H]2O[C@H](CO)[C@@H](O)[C@H]2O)c(=O)n1 [Azacitidine, reference compound]",AML clearance (% hCD33 + hCD45+ (of total white cells)),[1]; Treatment day 2,23.43% and 20.98% and 19.8% and 15.03% and 22.26% and 10.88% and 16.63%
same,AML clearance (% hCD33 + hCD45+ (of total white cells)),[1]; Treatment day 15,33.19% and 44.55% and 30.95% and 35.67% and 30.39% and 28.23% and 30.75%
same,AML clearance (% hCD33 + hCD45+ (of total white cells)),[1]; Treatment day 28,13.99% and 12.05% and 15.33% and 16.77% and 13.73% and 22.64% and 22.81%
same,AML clearance (% hCD33 + hCD45+ (of total white cells)),[1]; Treatment day 43,32.23% and 23.27% and 18.57% and 27.48% and 11.38% and 25.34% and 20.44%
same,AML clearance (% hCD33 + hCD45+ (of total white cells)),[1]; Treatment day 58,11.92% and 32.12% and 11.16% and 7.63% and 9.47% and 13.4%
same,AML clearance (% hCD33 + hCD45+ (of total white cells)),[1]; Treatment day 77,12.91% and 26.37% and 20.18% and 12.58% and 15.11% and 11.64%
same,AML clearance (% hCD33 + hCD45+ (of total white cells)),[1]; Treatment day 98,62.54% and 70.18% and 65.61% and 37.53% and 38.23%
same,AML clearance (% hCD33 + hCD45+ (of total white cells)),[1]; Treatment day −19,7.65% and 4.33% and 3.14% and 6.28% and 3.24% and 2.46% and 2.87%
same,% peripheral blood AML cells (treatment group value),"[1]; day 43, group G: azacitidine (1 mg/kg), vehicle 71%",22%
same,AML cell differentiation (% hCD33 + hCD11b+ (of hCD45+ cells)),[2]; Treatment day 2,10.07% and 14.27% and 13.08% and 12.37% and 5.55% and 9.38% and 9.55%
same,AML cell differentiation (% hCD33 + hCD11b+ (of hCD45+ cells)),[2]; Treatment day 15,12.12% and 16.08% and 11.64% and 18.36% and 13.75% and 11.72% and 18.15%
same,AML cell differentiation (% hCD33 + hCD11b+ (of hCD45+ cells)),[2]; Treatment day 28,21.14% and 21.62% and 19.07% and 20.9% and 16.95% and 20.64% and 21.18%
same,AML cell differentiation (% hCD33 + hCD11b+ (of hCD45+ cells)),[2]; Treatment day 43,10.64% and 9.94% and 11.58% and 6.98% and 6.67% and 12.03% and 10.48%
same,AML cell differentiation (% hCD33 + hCD11b+ (of hCD45+ cells)),[2]; Treatment day 58,14.45% and 9.99% and 10.78% and 11.33% and 11.72% and 13.55%
same,AML cell differentiation (% hCD33 + hCD11b+ (of hCD45+ cells)),[2]; Treatment day 77,10.12% and 10.78% and 8.78% and 6.76% and 10.92% and 11.76%
same,AML cell differentiation (% hCD33 + hCD11b+ (of hCD45+ cells)),[2]; Treatment day 98,10.31% and 14.59% and 17.5% and 8.29% and 16.64%
same,AML cell differentiation (% hCD33 + hCD11b+ (of hCD45+ cells)),[2]; Treatment day −19,1.53% and 0% (2×) and 2.59% and 0.27% and 2.72% and 1.16%
same,% AML cell differentiation (treatment group value),"[2]; day 43, group G: azacitidine (1 mg/kg), vehicle 15%",10%
same,Bone Marrow AML Clearance: % hCD33 + hCD45+ (% of white cells),[3]; [4],49.81% and 60.61% and 72.4% and 43.12%
same,Bone Marrow AML Clearance: % hCD45+ (% of white cells),[3]; [4],49.85% and 61% and 72.52% and 43.15%
same,% human AML cells in bone marrow (of white cells; lower = more clearance),"[3]; group G: azacitidine (1 mg/kg), vehicle 94%",55%
same,% Inhibition of 2-HG (plasma),2-HG production; [5],32.923% and 22.691% and 56.872% and 51.81% and 75.405% and 73.207% and 49.201%
same,Naive Subtracted 2-HG (plasma),2-HG production; [5],4.603 µM and 5.305 µM and 2.959 µM and 3.307 µM and 1.688 µM and 1.838 µM and 3.486 µM
same,Plasma 2-HG,2-HG production; [5],7.539 µM and 8.241 µM and 5.896 µM and 6.243 µM and 4.624 µM and 4.775 µM and 6.422 µM
same,% plasma 2-HG (treatment group value),"2-HG production; group G: azacitidine (1 mg/kg), vehicle 100%",48%
